Results from article PMC13107341, “Quinoline/thiazole compounds as selective acetylcholinesterase inhibitors: synthesis and biological assessment” (RSC Medicinal Chemistry, 2026).

What was measured:
AChE = AChE (Homo sapiens, UniProt P22303); experiment: Anticholinesterase enzyme activity, modified Ellman method (AChE); type: biochemical
Protocol: Anticholinesterase enzyme activity studies were conducted to evaluate the inhibitory potential of the synthesized compounds (Table 2).
(§1) The anticholinesterase enzyme activities of the compounds were investigated using the modified Ellman method. The details of this method have been presented in detail in our previous studies.[25–27]

BChE = BChE (Homo sapiens, UniProt P06276); experiment: Anticholinesterase enzyme activity, modified Ellman method (BChE); type: biochemical
Chain of BChE (P06276 29-602, species assumed): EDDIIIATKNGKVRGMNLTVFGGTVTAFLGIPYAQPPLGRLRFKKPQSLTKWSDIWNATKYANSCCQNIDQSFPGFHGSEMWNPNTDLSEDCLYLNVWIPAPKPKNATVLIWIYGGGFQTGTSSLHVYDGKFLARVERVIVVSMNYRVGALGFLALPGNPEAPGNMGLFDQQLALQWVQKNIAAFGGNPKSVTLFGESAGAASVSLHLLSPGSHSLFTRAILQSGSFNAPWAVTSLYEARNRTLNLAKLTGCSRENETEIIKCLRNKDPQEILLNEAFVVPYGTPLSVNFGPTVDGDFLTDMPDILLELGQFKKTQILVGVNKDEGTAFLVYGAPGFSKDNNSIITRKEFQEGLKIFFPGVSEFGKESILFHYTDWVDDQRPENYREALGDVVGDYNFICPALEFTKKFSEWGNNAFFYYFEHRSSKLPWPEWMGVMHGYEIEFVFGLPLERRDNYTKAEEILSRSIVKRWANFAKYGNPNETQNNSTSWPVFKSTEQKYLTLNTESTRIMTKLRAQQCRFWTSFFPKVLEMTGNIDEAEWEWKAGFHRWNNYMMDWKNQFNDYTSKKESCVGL
Protocol: Anticholinesterase enzyme activity studies were conducted to evaluate the inhibitory potential of the synthesized compounds (Table 2). Upon analysis of the results, compounds 3h and 3i stood out due to their notable IC50 values.
as §1

MTT cytotoxicity assay = settings: mouse
Protocol: Both the activity of a compound and its lack of cytotoxicity are criteria that determine whether it can be a potential drug candidate. To this end, the cytotoxic potential of the compounds was investigated on healthy fibroblast cells.
To spectroscopically determine the effects of the synthesized compounds on cell viability, MTT analysis was performed. This method is based on the fact that metabolically active living cells reduce the colorless MTT (3-(4,5-dimethylthiazol-2-yl)-2,5-diphenyltetrazolium) salt, converting it into purple formazan crystals. In the analysis, healthy NIH3T3 cell lines were seeded into 96-well plates at a cell density of […] and incubated with the compounds for 24 hours.[28–33]

Chain of AChE (P22303 32-614): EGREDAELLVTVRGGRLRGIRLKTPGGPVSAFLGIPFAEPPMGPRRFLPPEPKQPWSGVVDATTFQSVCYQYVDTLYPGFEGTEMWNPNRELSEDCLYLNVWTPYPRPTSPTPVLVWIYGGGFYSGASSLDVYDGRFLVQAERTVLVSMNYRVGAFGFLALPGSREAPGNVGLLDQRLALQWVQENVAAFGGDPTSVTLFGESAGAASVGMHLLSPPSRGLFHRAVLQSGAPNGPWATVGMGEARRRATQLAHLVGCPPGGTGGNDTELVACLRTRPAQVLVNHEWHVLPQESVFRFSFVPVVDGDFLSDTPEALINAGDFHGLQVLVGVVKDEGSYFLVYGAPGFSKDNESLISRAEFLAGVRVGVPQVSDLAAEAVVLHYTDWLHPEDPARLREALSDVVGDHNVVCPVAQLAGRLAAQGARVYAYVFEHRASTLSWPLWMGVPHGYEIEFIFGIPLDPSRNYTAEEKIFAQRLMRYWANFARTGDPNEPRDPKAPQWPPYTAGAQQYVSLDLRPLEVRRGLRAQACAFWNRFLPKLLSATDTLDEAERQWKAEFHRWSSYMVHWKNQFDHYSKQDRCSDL

| Compound | IC50 (AChE) | IC50 (BChE) | IC50 at 24 h (MTT cytotoxicity assay) |
| --- | --- | --- | --- |
| CCn1c(-c2ccccc2)csc1=NN=Cc1ccnc2ccccc12 [3a, 3-Ethyl-4-phenyl-2-((quinolin-4-ylmethylene)hydrazineylidene)-2,3-dihydrothiazole] | > 10 µM | > 10 µM | – |
| CCn1c(-c2ccc(C)cc2)csc1=NN=Cc1ccnc2ccccc12 [3b, 3-Ethyl-2-((quinolin-4-ylmethylene)hydrazineylidene)-4-(p-tolyl)-2,3-dihydrothiazole] | > 10 µM | > 10 µM | – |
| CCn1c(-c2ccc(OC)cc2)csc1=NN=Cc1ccnc2ccccc12 [3c, 3-Ethyl-4-(4-methoxyphenyl)-2-((quinolin-4-ylmethylene)hydrazineylidene)-2,3-dihydrothiazole] | 3.68 ± 0.109 µM | > 10 µM | – |
| CCn1c(-c2ccc([N+](=O)[O-])cc2)csc1=NN=Cc1ccnc2ccccc12 [3d, 3-Ethyl-4-(4-nitrophenyl)-2-((quinolin-4-ylmethylene)hydrazineylidene)-2,3-dihydrothiazole] | > 10 µM | > 10 µM | – |
| CCn1c(-c2ccc(F)cc2)csc1=NN=Cc1ccnc2ccccc12 [3e, 3-Ethyl-4-(4-fluorophenyl)-2-((quinolin-4-ylmethylene)hydrazineylidene)-2,3-dihydrothiazole] | 1.87 ± 0.678 µM | > 10 µM | – |
| CCn1c(-c2ccc(Cl)cc2)csc1=NN=Cc1ccnc2ccccc12 [3f, 4-(4-Chlorophenyl)-3-ethyl-2-((quinolin-4-ylmethylene)hydrazineylidene)-2,3-dihydrothiazole] | 4.75 ± 0.098 µM | > 10 µM | – |
| CCn1c(-c2ccc(C#N)cc2)csc1=NN=Cc1ccnc2ccccc12 [3g, 4-(3-Ethyl-2-((quinolin-4-ylmethylene)hydrazineylidene)-2,3-dihydrothiazol-4-yl)benzonitrile] | 9.96 ± 0.208 µM | > 10 µM | – |
| CCn1c(-c2ccc(Cl)c(Cl)c2)csc1=NN=Cc1ccnc2ccccc12 [3h, 4-(3,4-Dichlorophenyl)-3-ethyl-2-((quinolin-4-ylmethylene)hydrazineylidene)-2,3-dihydrothiazole] | 0.107 ± 0.07 µM | > 10 µM | 36.1 ± 0.968 µM |
| CCn1c(-c2ccc(O)c(O)c2)csc1=NN=Cc1ccnc2ccccc12 [3i, 4-(3-Ethyl-2-((quinolin-4-ylmethylene)hydrazineylidene)-2,3-dihydrothiazol-4-yl)benzene-1,2-diol] | 0.027 ± 0.002 µM | > 10 µM | 19.8 ± 0.627 µM |
| COc1cccc2c1C(=O)c1c(O)c3c(c(O)c1C2=O)C[C@@](O)(C(=O)CO)C[C@@H]3O[C@H]1C[C@H](N)[C@H](O)[C@H](C)O1 [Doxorubicin, reference compound] | – | – | > 1000 µM |
